{"source": "patent US20210330686A1", "about": "“COMPOSITION CONTAINING 2'-FUCOSYLLACTOSE FOR PREVENTING STROKE” (Advanced Protein Technologies Corp., priority 2018, published 2021)", "key": {"[1]": {"tested_on": "brain injury induced by middle cerebral artery occlusion (MCAO)", "assay": "Behavioral test: spontaneous exercise of stroke-induced animals (MCAO model)", "type": "in vivo, Sprague-Dawley rats"}, "[2]": {"tested_on": "brain injury induced by middle cerebral artery occlusion (MCAO)", "assay": "TTC staining of stroke-induced brain (MCAO model) after oral pre-administration", "type": "in vivo, Sprague-Dawley rats"}}, "data": [{"substance": "2′-fucosyllactose [2′-FL]", "values": [{"measurement": "exercise amount 2 days after stroke induction (D2)", "setting": "[1]; oral 300 mg/kg for 3 days before MCAO", "value": "significantly increase"}, {"measurement": "exercise amount 2 days after stroke induction (D2)", "setting": "[1]; oral 400 mg/kg for 3 days before MCAO", "value": "no statistically significant increase in exercise"}, {"measurement": "total exercise amount 2 days after stroke induction (D2)", "setting": "[1]; oral pre-administration for 3 days, all doses", "value": "found to increase the total exercise amount"}, {"measurement": "brain damage compared to the control group not administered", "setting": "[2]; experimental group administered with 2'-fucosyllactose", "value": "significantly suppressed"}, {"measurement": "brain damage suppression (TTC staining)", "setting": "[2]; oral pre-administration 0-7 weeks, 200, 300, 400 mg/kg, before MCAO", "value": "the longer the 2′-FL pre-administration period and the higher the dose, the better the effect on brain damage suppression"}]}]}
